The molecules below were run against GST tagged truncated human mutant G2019S LRRK2 (Homo sapiens (Human), UniProt Q5S007, G2019S) (assay: LRRK2 Km ATP LanthaScreen Assay). Details: G2019S LRRK2, 134 μM ATP (Km ATP), mean values.
Assay type: biochemical
How it was run: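 Enzyme (GST-tagged, truncated) was preincubated with compound for 15 min at RT in 50 mM Tris pH 8.5, 10 mM MgCl2, 0.01% Brij-35, 1 mM EGTA, 2 mM DTT and 0.05 mM orthovanadate. Fluorescein-LRRKtide and 134 μM ATP (Km) were then added for 90 min. EDTA and Tb-anti-pERM antibody stopped the reaction; the TR-FRET 520/495 ratio gave 4-parameter IC50s, reported as mean pIC50.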

Sequence of GST tagged truncated human mutant G2019S LRRK2 (Q5S007 970-2527 G2019S): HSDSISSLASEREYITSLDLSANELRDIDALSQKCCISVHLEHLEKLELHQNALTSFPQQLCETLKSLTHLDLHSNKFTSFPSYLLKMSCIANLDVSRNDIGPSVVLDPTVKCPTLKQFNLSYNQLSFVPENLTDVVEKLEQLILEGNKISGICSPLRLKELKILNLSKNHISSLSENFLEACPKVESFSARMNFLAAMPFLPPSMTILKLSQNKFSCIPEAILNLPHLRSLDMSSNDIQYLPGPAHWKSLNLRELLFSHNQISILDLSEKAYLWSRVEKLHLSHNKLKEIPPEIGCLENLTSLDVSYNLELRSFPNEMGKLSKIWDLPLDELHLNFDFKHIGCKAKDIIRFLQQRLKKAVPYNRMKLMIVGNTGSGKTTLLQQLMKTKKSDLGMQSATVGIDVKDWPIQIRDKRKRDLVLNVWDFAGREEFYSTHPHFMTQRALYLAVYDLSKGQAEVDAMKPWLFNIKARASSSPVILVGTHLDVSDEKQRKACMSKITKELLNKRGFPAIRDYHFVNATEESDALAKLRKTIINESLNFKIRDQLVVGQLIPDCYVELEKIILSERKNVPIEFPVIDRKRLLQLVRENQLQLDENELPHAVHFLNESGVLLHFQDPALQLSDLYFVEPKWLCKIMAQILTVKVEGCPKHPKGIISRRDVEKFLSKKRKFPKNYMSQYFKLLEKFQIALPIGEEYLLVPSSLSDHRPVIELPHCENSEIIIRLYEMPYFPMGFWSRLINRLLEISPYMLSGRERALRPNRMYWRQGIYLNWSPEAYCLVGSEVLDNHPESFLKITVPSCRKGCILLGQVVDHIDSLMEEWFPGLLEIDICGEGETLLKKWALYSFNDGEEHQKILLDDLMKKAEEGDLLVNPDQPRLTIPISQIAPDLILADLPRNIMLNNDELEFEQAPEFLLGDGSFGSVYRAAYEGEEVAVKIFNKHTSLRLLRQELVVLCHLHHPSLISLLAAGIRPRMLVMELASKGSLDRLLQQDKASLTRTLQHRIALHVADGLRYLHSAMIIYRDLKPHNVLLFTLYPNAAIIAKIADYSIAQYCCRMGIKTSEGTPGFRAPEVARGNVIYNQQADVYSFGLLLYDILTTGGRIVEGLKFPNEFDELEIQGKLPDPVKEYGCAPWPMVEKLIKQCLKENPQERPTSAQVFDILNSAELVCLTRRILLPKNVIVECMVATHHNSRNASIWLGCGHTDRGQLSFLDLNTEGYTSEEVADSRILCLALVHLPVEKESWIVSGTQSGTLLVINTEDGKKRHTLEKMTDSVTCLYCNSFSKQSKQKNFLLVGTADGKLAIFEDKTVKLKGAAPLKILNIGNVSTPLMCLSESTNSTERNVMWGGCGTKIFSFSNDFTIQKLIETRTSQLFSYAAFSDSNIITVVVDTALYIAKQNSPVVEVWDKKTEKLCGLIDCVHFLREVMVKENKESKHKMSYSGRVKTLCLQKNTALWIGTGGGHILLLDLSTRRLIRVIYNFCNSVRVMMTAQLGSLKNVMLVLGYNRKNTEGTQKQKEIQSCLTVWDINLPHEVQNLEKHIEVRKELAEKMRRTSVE

In order of falling “LRRK2 pIC50” value:
1. COC[C@H](O)CN1CCC(c2cc3nc(Nc4cnn(C5CC5)c4C)ncc3cc2Cl)CC1 [Ex-4.211, (2R)-1-(4-{6-chloro-2-[(1-cyclopropyl-5-methyl-1H-pyrazol-4-yl)amino]quinazolin-7-yl}piperidin-1-yl)-3-methoxypropan-2-ol]  9.15
2. CC(C)(Cn1ncc(Nc2ncc3cc(Cl)c(C4CCN(C5COC5)CC4)cc3n2)c1Cl)OC(F)F [Ex-2.13, 6-chloro-N-{5-chloro-1-[2-(difluoromethoxy)-2-methylpropyl]-1H-pyrazol-4-yl}-7-[1-(oxetan-3-yl)piperidin-4-yl]quinazolin-2-amine]  9.15
3. CC1OCC1N1CC[C@H](c2cc3nc(Nc4cnn(CC(C)(C)O)c4Cl)ncc3cc2Cl)[C@@H](F)C1 (single isomer, unassigned) [Ex-4.73, (3S,4S)(2R,3R) or (3S,4S)(2S,3S) or (3R,4R)(2R,3R) or (3R,4R)(2S,3S) or (3R,4R)(2S,3R) or (3R,4R)(2R,3S) or (3S,4S)(2S,3R) or (3S,4S)(2R,3S) 1-[5-chloro-4-({6-chloro-7-[3-fluoro-1-(2-methyloxetan-3-yl)piperidin-4-yl]quinazolin-2-yl}amino)-1H-pyrazol-1-yl]-2-methylpropan-2-ol]  9.13
4. FC(F)Cn1ncc(Nc2ncc3cc(Cl)c([C@H]4CCN(C5COC5)C[C@@H]4F)cc3n2)c1Cl (single isomer, unassigned) [Ex-4.38, (3S,4S) or (3R,4R) 6-chloro-N-[5-chloro-1-(2,2-difluoroethyl)-1H-pyrazol-4-yl]-7-[3-fluoro-1-(oxetan-3-yl)piperidin-4-yl]quinazolin-2-amine]  9.11
5. OC1COCC1n1ncc(Nc2ncc3cc(Cl)c(C4CCN(C5COC5)CC4)cc3n2)c1Cl (single isomer, unassigned) [Ex-2.47, (3S,4S) or (3R,4R) or (3S,4R) or (3R,4S) 4-[5-chloro-4-({6-chloro-7-[1-(oxetan-3-yl)piperidin-4-yl]quinazolin-2-yl}amino)-1H-pyrazol-1-yl]oxolan-3-ol]  9.11
6. CC1(N2CCC(c3cc4nc(Nc5cnn(C6CC6)c5Cl)ncc4cc3Cl)CC2)COC1 [Ex-8.10, 6-chloro-N-(5-chloro-1-cyclopropyl-1H-pyrazol-4-yl)-7-[1-(3-methyloxetan-3-yl)piperidin-4-yl]quinazolin-2-amine]  9.08
7. Cc1cc2cnc(Nc3cnn(CC(C)(C)O)c3C)nc2cc1[C@H]1CCN(C2COC2)C[C@@H]1F (single isomer, unassigned) [Ex-5.6, (3S,4S) or (3R,4R) 1-[4-({7-[3-fluoro-1-(oxetan-3-yl)piperidin-4-yl]-6-methylquinazolin-2-yl}amino)-5-methyl-1H-pyrazol-1-yl]-2-methylpropan-2-ol]  8.68
8. FC1(c2cc3nc(Nc4cnn(C5CC5)c4Cl)ncc3cc2Cl)CCN(C2COC2)CC1 [Ex-4.31, 6-chloro-N-(5-chloro-1-cyclopropyl-1H-pyrazol-4-yl)-7-[4-fluoro-1-(oxetan-3-yl)piperidin-4-yl]quinazolin-2-amine]  8.23
9. Cn1ncc(Nc2ncc3cc(Cl)c([C@H]4CCN([C@H]5COC[C@H]5O)C[C@@H]4F)cc3n2)c1Cl (single isomer, unassigned) [Ex-4.188, (3S,4S)(3S,4S) or (3S,4S)(3R,4R) or (3R,4R)(3S,4S) or (3R,4R)(3R,4R) 4-(4-{6-chloro-2-[(5-chloro-1-methyl-1H-pyrazol-4-yl)amino]quinazolin-7-yl}-3-fluoropiperidin-1-yl)oxolan-3-ol]  7.83
10. CC1OCC1N1CCC(c2cc3nc(Nc4cnn(C5CC5)c4Cl)ncc3cc2Cl)CC1 (single isomer, unassigned) [Ex-4.47, (2R,3R) or (2S,3S) or (2S,3R) or (2R,3S) 6-chloro-N-(5-chloro-1-cyclopropyl-1H-pyrazol-4-yl)-7-[1-(2-methyloxetan-3-yl)piperidin-4-yl]quinazolin-2-amine]  7.62

With `CC1(N2CC[C@H](c3cc4nc(Nc5cnn(C6CC6(F)F)c5Cl)ncc4cc3Cl)[C@@H](F)C2)COC[C@@H]1O` (single isomer, unassigned) [Ex-4.10, (R)(3S,4S)(3S,4S) or (R)(3S,4S)(3R,4R) or (R)(3R,4R)(3S,4S) or (R)(3R,4R)(3R,4R) or (S)(3S,4S)(3S,4S) or (S)(3S,4S)(3R,4R) or (S)(3R,4R)(3S,4S) or (S)(3R,4R)(3R,4R) 4-(6-chloro-2-((5-chloro-1-(2,2-difluorocyclopropyl)-1H-pyrazol-4-yl)amino)quinazolin-7-yl)-3-fluoropiperidin-1-yl)-4-methyltetrahydrofuran-3-ol] the “LRRK2 pIC50” value was greater than 9.20.
With `Cn1ncc(Nc2ncc3cc(Cl)c([C@@H]4CCN([C@@H]5COC[C@@H]5O)C[C@H]4F)cc3n2)c1C1CC1` (single isomer, unassigned) [Ex-4.239, (3S,4S)(3S,4S) or (3S,4S)(3R,4R) or (3R,4R)(3S,4S) or (3R,4R)(3R,4R) 4-(4-{6-chloro-2-[(5-cyclopropyl-1-methyl-1H-pyrazol-4-yl)amino]quinazolin-7-yl}-3-fluoropiperidin-1-yl)oxolan-3-ol] the “LRRK2 pIC50” value was greater than 9.20.
In the case of `Cc1cc2cnc(Nc3cnn(C4CC4(F)F)c3Cl)nc2cc1[C@@H]1CCN([C@H]2COC[C@H]2O)C[C@H]1F` (single isomer, unassigned) [Ex-4.145, (R)(3S,4S)(3S,4S) or (R)(3S,4S)(3R,4R) or (R)(3R,4R)(3S,4S) or (R)(3R,4R)(3R,4R) or (S)(3S,4S)(3S,4S) or (S)(3S,4S)(3R,4R) or (S)(3R,4R)(3S,4S) or (S)(3R,4R)(3R,4R) 4-[4-(2-{[5-chloro-1-(2,2-difluorocyclopropyl)-1H-pyrazol-4-yl]amino}-6-methylquinazolin-7-yl)-3-fluoropiperidin-1-yl]oxolan-3-ol], the “LRRK2 pIC50” value is reported as greater than 9.20.
With `O[C@H]1COC[C@H]1N1CC[C@H](c2cc3nc(Nc4cnn(C56CC(C5)C6)c4Cl)ncc3cc2Cl)[C@@H](F)C1` (single isomer, unassigned) [Ex-8.37, (3S,4S)(3S,4S) or (3S,4S)(3R,4R) or (3R,4R)(3S,4S) or (3R,4R)(3R,4R) 4-[4-(2-{[1-(bicyclo[1.1.1]pentan-1-yl)-5-chloro-1H-pyrazol-4-yl]amino}-6-chloroquinazolin-7-yl)-3-fluoropiperidin-1-yl]oxolan-3-ol] the “LRRK2 pIC50” value was greater than 9.20.

Same assay, conditions: G2019S LRRK2, 134 μM ATP (Km ATP), mean values; read-out: LRRK2 pIC50 (converted)

`Cc1c(Nc2ncc3cc(Cl)c(C4CCN(C5COC5)CC4)cc3n2)cnn1C1CC1(F)F` (single isomer, unassigned) [Ex-2.73, (S) or (R) 6-chloro-N-[1-(2,2-difluorocyclopropyl)-5-methyl-1H-pyrazol-4-yl]-7-[1-(oxetan-3-yl)piperidin-4-yl]quinazolin-2-amine] and `Cc1c(Nc2ncc3cc(Cl)c(C4CCN(C5COC5)CC4)cc3n2)cnn1C12CC(C1)C2` [Ex-2.21, N-[1-(bicyclo[1.1.1]pentan-1-yl)-5-methyl-1H-pyrazol-4-yl]-6-chloro-7-[1-(oxetan-3-yl)piperidin-4-yl]quinazolin-2-amine] are within 1.5-fold of each other in IC50: 0.955 nM for the first, 0.676 nM for the second.

First: CC(C)(O)CN1CCC(c2cc3nc(Nc4cnn(C5CC5)c4)ncc3cc2Cl)C1 (single isomer, unassigned) [Ex-1.10, (S) or (R) 1-(3-{6-chloro-2-[(1-cyclopropyl-1H-pyrazol-4-yl)amino]quinazolin-7-yl}pyrrolidin-1-yl)-2-methylpropan-2-ol]
Second: CC1(N2CCC(n3cc(Nc4ncc5cc(Cl)c(C6CC67CC7)cc5n4)cn3)CC2)COC1 (single isomer, unassigned) [Ex-2.6, (S) or (R) 6-chloro-N-{1-[1-(3-methyloxetan-3-yl)piperidin-4-yl]-1H-pyrazol-4-yl}-7-(spiro[2.2]pentan-1-yl)quinazolin-2-amine]
The IC50 of the first is higher: 28.2 nM for the first, less than 0.631 nM for the second.

First: C[C@@H]1CC(c2cc3nc(Nc4cnn(C5CC5)c4Cl)ncc3cc2Cl)CCN1C1COC1 (single isomer, unassigned) [Ex-1.11, (S) or (R) 6-chloro-N-(5-chloro-1-cyclopropyl-1H-pyrazol-4-yl)-7-(2-methyl-1-(oxetan-3-yl)piperidin-4-yl)quinazolin-2-amine]
Second: Clc1cc2cnc(Nc3cnn(C4CC4)c3Cl)nc2cc1C1CCN(C2COC3(CCC3)C2)CC1 (single isomer, unassigned) [Ex-4.114, (R) or (S) 7-(1-(5-oxaspiro[3.4]octan-7-yl)piperidin-4-yl)-6-chloro-N-(5-chloro-1-cyclopropyl-1H-pyrazol-4-yl)quinazolin-2-amine]
The IC50 of the first is lower: less than 0.631 nM for the first, 10 nM for the second.

Compared with `Cc1c(Nc2ncc3cc(Cl)c(C4CCN(CC(O)c5ccc(C#N)cc5)CC4)cc3n2)cnn1C1CC1` (single isomer, unassigned) [Ex-4.220, (S) or (R) 4-[2-(4-{6-chloro-2-[(1-cyclopropyl-5-methyl-1H-pyrazol-4-yl)amino]quinazolin-7-yl}piperidin-1-yl)-1-hydroxyethyl]benzonitrile], `Cc1c(Nc2ncc3cc(Cl)c(C4CCN(C5CCCC5(F)F)CC4)cc3n2)cnn1C1CC1` (single isomer, unassigned) [Ex-1.21, (S) or (R) 6-chloro-N-(1-cyclopropyl-5-methyl-1H-pyrazol-4-yl)-7-[1-(2,2-difluorocyclopentyl)piperidin-4-yl]quinazolin-2-amine] is 3.3-fold lower in IC50: 6.17 nM for the first, 1.86 nM for the second.

For `CC(n1ncc(Nc2ncc3cc(Cl)c(C4CCN(C5COC5)CC4)cc3n2)c1Cl)C(C)(C)O` (single isomer, unassigned) [Ex-4.67, (S) or (R) 3-[5-chloro-4-({6-chloro-7-[1-(oxetan-3-yl)piperidin-4-yl]quinazolin-2-yl}amino)-1H-pyrazol-1-yl]-2-methylbutan-2-ol], the IC50 was less than 0.631 nM.
